Patent publication US11083707B2, “Substituted indoline derivatives as dengue viral replication inhibitors” (JANSSEN PHARMACEUTICALS, INC., priority 2017, dated 2021)

How the values were obtained:
in vitro = details: African green monkey
DENV-2 16681 strain = assay: DENV-2 antiviral assay (eGFP fluorescence, Vero cells); assay type: cell-based, Dengue virus; details: DENV-2 16681 eGFP, MOI 0.5, 3 days
Description: The antiviral activity of all the compounds of the invention was tested against the DENV-2 16681 strain which was labeled with enhanced green fluorescent protein (eGPF). The culture medium consists of minimal essential medium supplemented with 2% of heat-inactivated fetal calf serum, 0.04% gentamycin (50 mg/mL) and 2 mM of L-glutamine. Vero cells, obtained from ECACC, were suspended in culture medium and 25 μL was added to 384-well plates (2500 cells/well), which already contain the antiviral compounds. Typically, these plates contain a 5-fold serial dilution of 9 dilution steps of the test compound at 200 times the final concentration in 100% DMSO (200 nL). […] Finally, each plate contains wells which are assigned as virus controls (containing cells and virus in the absence of compound), cell controls (containing cells in the absence of virus and compound) and medium controls (containing medium in the absence of cells, virus and compounds). To the wells assigned as medium control, 25 μL of culture medium was added instead of Vero cells. Once the cells were added to the plates, the plates were incubated for 30 minutes at room temperature to allow the cells to distribute evenly within the wells. Next, the plates were incubated in a fully humidified incubator (37° C., 5% CO2) until the next day. Then, DENV-2 strain 16681, labeled with eGFP, was added at a multiplicity of infection (MOI) of 0.5. Therefore, 15 μL of virus suspension was added to all the wells containing test compound and to the wells assigned as virus control. In parallel, 15 μL of culture medium was added to the medium and cell controls. Next, the plates were incubated for 3 days in a fully humidified incubator (37° C., 5% CO2). At the day of the read out, the eGFP fluorescence was measured using an automated fluorescence microscope at 488 nm (blue laser). Using an in-house LIMS system, inhibition dose response curves for each compound were calculated and the half maximal effective concentration (EC50) was determined. Therefore, the percent inhibition (I) for every test concentration is calculated using the following formula: I=100*(ST-SCC)/(SVC-SCC), ST, SCC and SVC are the amount of eGFP signal in the test compound, cell control and virus control wells, respectively. The EC50 represents the concentration of a compound at which the virus replication is inhibited with 50%, as measured by a 50% reduction of the eGFP fluorescent intensity compared to the virus control. The EC50 is calculated using linear interpolation (Table 1).

Vero cells = details: African green monkey
[1] = Dengue virus, DENV2, Vero, 72 h

Structure (SMILES) | CC50 (in vitro) | EC50 (DENV-2 16681 strain; [1]) | EC50 (DENV-2 16681 strain) | CC50 (Vero cells)
COc1cc(NC(C(=O)N2CCc3cc(OC)c(C(F)(F)F)cc32)c2ccc(F)cc2OCCO)cc(-n2cncn2)c1 (racemic) [Compound 2, 2-(4-fluoro-2-(2-hydroxyethoxy)phenyl)-2-((3-methoxy-5-(1H-1,2,4-triazol-1-yl)phenyl)amino)-1-(5-methoxy-6-(trifluoromethyl)indolin-1-yl)ethanone] | 13 µM | 2.8 nM | – | –
COc1cc(NC(C(=O)N2CCc3cc(F)c(OC(F)(F)F)cc32)c2ccc(Cl)cc2OCCO)cc(-n2cncn2)c1 (single isomer, unassigned) [Compound 9A] | – | – | 250 nM | 4.2 µM
COc1cc(NC(C(=O)N2CCc3cc(F)c(OC(F)(F)F)cc32)c2ccc(Cl)cc2OCCO)cc(-n2cncn2)c1 (racemic) [Compound 9, 2-(4-chloro-2-(2-hydroxyethoxy)phenyl)-1-(5-fluoro-6-(trifluoromethoxy)indolin-1-yl)-2-((3-methoxy-5-(1H-1,2,4-triazol-1-yl)phenyl)amino)ethanone] | 3.9 µM | 1.6 nM | – | –
COc1cc(NC(C(=O)N2CCc3cc(F)c(OC(F)(F)F)cc32)c2ccc(Cl)cc2OCCCC(=O)O)cc(-n2cncn2)c1 (racemic) [Compound 15, 4-(5-chloro-2-(2-(5-fluoro-6-(trifluoromethoxy)indolin-1-yl)-1-((3-methoxy-5-(1H-1,2,4-triazol-1-yl)phenyl)amino)-2-oxoethyl)phenoxy)butanoic acid] | 11 µM | 0.22 nM | – | –
COc1cc(NC(C(=O)N2CCc3c(C)cc(OC(F)(F)F)cc32)c2ccc(Cl)cc2OCCO)cc(-n2cncn2)c1 (single isomer, unassigned) [Compound 10A] | 10 µM | – | 63 nM | –
COc1cc(NC(C(=O)N2CCc3ccc(OC(F)(F)F)cc32)c2ccc(Cl)cc2OCCO)cc(-n2cncn2)c1 (racemic) [Compound 6, 2-(4-chloro-2-(2-hydroxyethoxy)phenyl)-2-((3-methoxy-5-(1H-1,2,4-triazol-1-yl)phenyl)amino)-1-(6-(trifluoromethoxy)indolin-1-yl)ethanone] | 3.3 µM | 0.97 nM | – | –
COc1cc(NC(C(=O)N2CCc3ccc(C(F)(F)F)cc32)c2ccc(Cl)cc2OCCCC(=O)O)cc(-n2cncn2)c1 (single isomer, unassigned) [Compound 11A] | 11 µM | – | 45 nM | –
COc1cc(NC(C(=O)N2CCc3ccc(C(F)(F)F)cc32)c2ccc(Cl)cc2OCCCC(=O)O)cc(-n2cncn2)c1 (racemic) [Compound 11, 4-(5-chloro-2-(1-((3-methoxy-5-(1H-1,2,4-triazol-1-yl)phenyl)amino)-2-oxo-2-(6-(trifluoromethyl)indolin-1-yl)ethyl)phenoxy)butanoic acid] | 15 µM | 0.31 nM | – | –
COc1cc(NC(C(=O)N2CCc3ccc(OC(F)(F)F)cc32)c2ccc(Cl)cc2OCCCC(=O)O)cc(-n2cncn2)c1 (racemic) [Compound 13, 4-(5-chloro-2-(1-((3-methoxy-5-(1H-1,2,4-triazol-1-yl)phenyl)amino)-2-oxo-2-(6-(trifluoromethoxy)indolin-1-yl)ethyl)phenoxy)butanoic acid] | 11 µM | 0.23 nM | – | –
COc1cc(NC(C(=O)N2CCc3ccc(OC(F)(F)F)cc32)c2ccc(Cl)cc2OCCC(C)(C)C(=O)O)cc(-n2cncn2)c1 (single isomer, unassigned) [Compound 14A] | 9.1 µM | – | 420 nM | –
COc1cc(NC(C(=O)N2CCc3cc(F)c(C(F)(F)F)cc32)c2ccc(Cl)cc2OCCO)cc(-n2cncn2)c1 (racemic) [Compound 7, 2-(4-chloro-2-(2-hydroxyethoxy)phenyl)-1-(5-fluoro-6-(trifluoromethyl)indolin-1-yl)-2-((3-methoxy-5-(1H-1,2,4-triazol-1-yl)phenyl)amino)ethanone] | 10 µM | 3 nM | – | –
COc1cc(NC(C(=O)N2CCc3c(C)cc(OC(F)(F)F)cc32)c2ccc(Cl)cc2OCCO)cc(-n2cncn2)c1 (racemic) [Compound 10, 2-(4-chloro-2-(2-hydroxyethoxy)phenyl)-2-((3-methoxy-5-(1H-1,2,4-triazol-1-yl)phenyl)amino)-1-(4-methyl-6-(trifluoromethoxy)indolin-1-yl)ethanone] | 10 µM | 0.35 nM | – | –
COc1cc(NC(C(=O)N2CCc3ccc(OC(F)(F)F)cc32)c2ccc(F)cc2OCCO)cc(-n2cncn2)c1 (single isomer, unassigned) [Compound 3A] | 11 µM | – | 520 nM | –
COc1cc(NC(C(=O)N2CCc3ccc(C(F)(F)F)cc32)c2ccc(Cl)cc2OCCO)cc(-n2cncn2)c1 (single isomer, unassigned) [Compound 4A] | 7.8 µM | – | 1200 nM | –
COc1cc(NC(C(=O)N2CCc3cc(OC)c(C(F)(F)F)cc32)c2ccc(Cl)cc2OCCCC(=O)O)cc(-n2cncn2)c1 (racemic) [Compound 12, 4-(5-chloro-2-(1-((3-methoxy-5-(1H-1,2,4-triazol-1-yl)phenyl)amino)-2-(5-methoxy-6-(trifluoromethyl)indolin-1-yl)-2-oxoethyl)phenoxy)butanoic acid] | 13 µM | 2.2 nM | – | –
COc1cc(NC(C(=O)N2CCc3c(C)cc(OC(F)(F)F)cc32)c2ccc(Cl)cc2OCCCC(=O)O)cc(-n2cncn2)c1 (single isomer, unassigned) [Compound 16A] | 11 µM | – | 14 nM | –
COc1cc(NC(C(=O)N2CCc3ccc(OC(F)(F)F)cc32)c2ccc(Cl)cc2OCCC(C)(C)C(=O)O)cc(-n2cncn2)c1 (racemic) [Compound 14, 4-(5-chloro-2-(1-((3-methoxy-5-(1H-1,2,4-triazol-1-yl)phenyl)amino)-2-oxo-2-(6-(trifluoromethoxy)indolin-1-yl)ethyl)phenoxy)-2,2-dimethylbutanoic acid] | 10 µM | 0.41 nM | – | –
COc1cc(NC(C(=O)N2CCc3cc(OC)c(C(F)(F)F)cc32)c2ccc(Cl)cc2OCCO)cc(-n2cncn2)c1 (racemic) [Compound 5, 2-(4-chloro-2-(2-hydroxyethoxy)phenyl)-2-((3-methoxy-5-(1H-1,2,4-triazol-1-yl)phenyl)amino)-1-(5-methoxy-6-(trifluoromethyl)indolin-1-yl)ethanone] | 11 µM | 0.82 nM | – | –
COc1cc(NC(C(=O)N2CCc3ccc(OC(F)(F)F)cc32)c2ccc(F)cc2OCCO)cc(-n2cncn2)c1 (racemic) [Compound 3, 2-(4-fluoro-2-(2-hydroxyethoxy)phenyl)-2-((3-methoxy-5-(1H-1,2,4-triazol-1-yl)phenyl)amino)-1-(6-(trifluoromethoxy)indolin-1-yl)ethanone] | 8.5 µM | 1.9 nM | – | –
COc1cc(NC(C(=O)N2CCc3cc(OC)c(OC(F)(F)F)cc32)c2ccc(Cl)cc2OCCO)cc(-n2cncn2)c1 (racemic) [Compound 8, 2-(4-chloro-2-(2-hydroxyethoxy)phenyl)-2-((3-methoxy-5-(1H-1,2,4-triazol-1-yl)phenyl)amino)-1-(5-methoxy-6-(trifluoromethoxy)indolin-1-yl)ethanone] | 9.5 µM | 2.1 nM | – | –
COc1cc(NC(C(=O)N2CCc3cc(F)c(OC(F)(F)F)cc32)c2ccc(Cl)cc2OCCCC(=O)O)cc(-n2cncn2)c1 (single isomer, unassigned) [Compound 15A] | 10 µM | – | 5.3 nM | –
COc1cc(NC(C(=O)N2CCc3ccc(C(F)(F)F)cc32)c2ccc(F)cc2OCCO)cc(-n2cncn2)c1 (racemic) [Compound 1, 2-(4-fluoro-2-(2-hydroxyethoxy)phenyl)-2-((3-methoxy-5-(1H-1,2,4-triazol-1-yl)phenyl)amino)-1-(6-(trifluoromethyl)indolin-1-yl)ethanone] | 12 µM | 3.1 nM | – | –
COc1cc(NC(C(=O)N2CCc3ccc(C(F)(F)F)cc32)c2ccc(F)cc2OCCO)cc(-n2cncn2)c1 (single isomer, unassigned) [Compound 1A] | 7.7 µM | – | 1000 nM | –
COc1cc(NC(C(=O)N2CCc3cc(F)c(C(F)(F)F)cc32)c2ccc(Cl)cc2OCCO)cc(-n2cncn2)c1 (single isomer, unassigned) [Compound 7A] | 11 µM | – | 430 nM | –
COc1cc(NC(C(=O)N2CCc3cc(OC)c(C(F)(F)F)cc32)c2ccc(Cl)cc2OCCO)cc(-n2cncn2)c1 (single isomer, unassigned) [Compound 5A] | 11 µM | – | 42 nM | –
COc1cc(NC(C(=O)N2CCc3cc(OC)c(C(F)(F)F)cc32)c2ccc(F)cc2OCCO)cc(-n2cncn2)c1 (single isomer, unassigned) [Compound 2A] | 12 µM | – | 270 nM | –
